Measured values reported in publication PMC9101764, “Synthesis and In Vitro Characterization of Selective Cannabinoid CB2 Receptor Agonists: Biological Evaluation against Neuroblastoma Cancer Cells” (Molecules, 2022).

How the values were obtained:
ERK1/2 = ERK1/2 Western blot and densitometric analysis; assay type: cell-based, human; settings: SH-SY5Y cells
From the text: Among the CB2R agonists tested, we selected FG158a as it provides the best dose–response curve in SH-SY5Y cells (Figure 4B). The effect of CB2R agonists on the ERK pathway has been previously detected in other tumor models such as a breast cancer model. The dysregulation of the ERK/MAPK pathway is crucial in neuroblastoma. […] We addressed the effect of FG158a on MAPK kinase activation by the evaluation of its component ERK1/2 in the presence and in the absence of the antagonist SR144528 (Figure 6).
After the treatment with FG158a (20 μM) in the presence and absence of SR144528 (added 1 h before the CB2R agonist at the concentration of 1 µM), SHSY5Y cells were centrifuged and cell pellets were lysed in R.I.P.A. buffer (50 mM Tris-HCl, pH = 7.4; 150 mM NaCl; […], 1% NP-40; 0.5% sodium deoxycholate; 0.1% SDS; 1:100 phosphatase and protease inhibitors, both added before the lysis). Samples were centrifuged (17,900× g 20′ at 4 °C) and protein concentration was determined by Bio-Rad Protein Assay (Bio-Rad, Berkeley, CA, USA) as previously described. […]
Figure 6 FG158a inhibition of ERK1/2 is mediated by CB2R. […] The statistical analysis was performed by parametric two tailed t-test (* p < 0.05 FG158a calculated with respect to the CTR; ^& p < 0.01 FG158a+SR144528 calculated with respect to FG158a).

SH-SY5Y cells = assay: Sulforhodamine B (SRB) cell viability assay; assay type: cell-based, human
Procedure: We tested the anti-proliferative activity of the novel CB2R agonists FG158a, FG160a, FG161a, and LV62 in neuroblastoma cell lines (Figure 4). The compounds were assayed as a mixture of cis and trans isomers. […] After 72 h of treatment, the effect was higher and could also be observed at lower concentrations. The inhibitory effect was confirmed in another neuroblastoma cell line, SK-N-BE cells.
Human neuroblastoma SHSY5Y and SK-N-BE cell lines were grown in DMEM (GIBCO, Paisley, UK) and MEM (Sigma-Aldrich, St.Louis, MO, USA), respectively, supplemented with 2 mM l-glutamine, […], 50 units/mL penicillin and 10% heat-inactivated fetal bovine serum (FBS) in a humidified atmosphere (5% CO2 at 37 °C). Cells were detached as previously described with 0.25% trypsin (Sigma-Aldrich) at 70–80% confluence.
Cells seeded for 24 h in triplicate in 96-well plates at a density of 8000 cells/well were left to adhere overnight. CB2R agonists were added to the culture in triplicate at concentrations ranging from 2.5–40 µM. After 24 h, 48 h, and 72 h, cells were fixed, shaking for 2 h at 4 °C with 50% v/v trichloroacetic acid and washed with distilled water. Cells left overnight to dry were stained with 0.4% w/v SRB in 1% v/v acetic acid (at room temperature for 30 min on a shaker) and then washed with 1% acetic acid to allow for the removal of the unbound dye. TRIS-HCl 10 mM, pH 7.4 was added to the cells and absorbance was measured at 495 nm as previously shown using a Glomax® Discover Microplate Reader (Promega, Madison, WI, USA). In combinatory assays, similar procedures were adopted and the CB2R antagonist SR144528 (1 µM) was added 1 h before the CB2 agonists (10, 20 and 40 µM) to SHSY5Y cells that were harvested as described above after 72 h of incubation.
Figure 4 Inhibition of cell viability. The effect on cell viability by CB2R agonists was determined by sulforhodamine B (SRB) assays in SH-SY5Y and SK-N-BE cell lines. SH-SY5Y cells were treated with the compounds indicated in the figure for 24 h (A), 48 h (B), and 72 h (C) at the concentrations reported in the histograms. SK-N-BE cells were treated with the same compounds for 72 h (D). Figures report cell viability (mean of at least 3 independent experiments ± SEM) as percent of cell survival vs. untreated cells (considered as 100% of survival). […] The statistical significance was calculated with two-way ANOVA using Dunnett’s multiple comparisons test.

CC1CCC(NC(=O)c2cc3cccnc3n(CCCCCBr)c2=O)CC1 (stereo not shown) [FG158a, 1-(5-bromopentyl)-N-(4-methylcyclohexyl)-2-oxo-1,2-dihydro-1,8-naphthyridine-3-carboxamide]
effect on ERK1/2 expression in presence of SR144528 (ERK1/2; 20 µM FG158a + SR144528 1 µM added 1 h before): reversed the inhibitory effect
effect on ERK1/2 expression (ERK1/2; 20 µM, vs untreated control cells): inhibited ERK1/2 expression
effect on cell viability (SH-SY5Y cells; 24 h, 48 h and 72 h, 2.5–40 µM): inhibited cell viability
IC50 (SH-SY5Y cells; Homo sapiens, 72 h of treatment, SRB, cis/trans mixture): 11.8 µM
